Measurements published in patent publication US5886146A, “Inhibitors of thrombosis” (Corvas International, Inc., priority 1995, dated 1999).
pIC50: −log10 of the molar value. Read-outs that look alike come from different tables or passages of the source. Peptide text beside a SMILES is read from it. * marks the point of attachment. Hydrocinnamoyl = O=C(CCc1ccccc1)*

Assays:
human α-thrombin = human α-thrombin (Homo sapiens, UniProt P00734); experiment: Thrombin assay, chromogenic substrate Pefachrome t-PA; format: biochemical; settings: purified human enzyme 0.25 nM, 30 minute incubation, substrate 300 μM, HBSA pH 7.5
Description: (§1) The buffer used for all assays was HBSA (10 mM HEPES, pH 7.5, 150 mM sodium chloride, 0.1% bovine serum albumin). […] Following a 30 minute incubation at ambient temperature, 50 μL of the substrate at the concentrations specified below, was added to the wells yielding a final total volume of 200 μL.
Thrombin catalytic activity was determined using the chromogenic substrate Pefachrome t-PA (CH3 SO2 -D-hexahydrotyrosine-glycyl-L-arginine-p-nitroaniline, obtained from Pentapharm Ltd.).

Human factor Xa = target: T1, Human factor Xa (Homo sapiens, UniProt P00742); experiment: Factor Xa assay, chromogenic substrate S2765; format: biochemical; settings: purified human enzyme 0.5 nM, 30 minute incubation, substrate 250 μM, HBSA pH 7.5
T1 construct: Human factor Xa was prepared from purified human factor X obtained from Enzyme Research Laboratories; purchased Enzyme Research Laboratories
Description: as §1, with “μL. The initial velocity of chromogenic substrate hydrolysis was measured by the change in absorbance at 405 nm using a Thermo Max® Kinetic Microplate Reader over a 5 minute period in which less than 5% of the added substrate was utilized.” for “μL.”
Factor Xa catalytic activity was determined using the substrate, S2765 (N-α-benzyloxycarbonyl-D-argininyl-L-glycyl-L-arginine-p-nitroanilide dihydrochloride) which was obtained from Kabi Diagnostica. […] Human factor Xa was prepared from purified human factor X obtained from Enzyme Research Laboratories according to the method described by Bock, P. E. et al., Archives of Biochem. Biophys. 273: 375 (1989). The enzyme was diluted into HBSA prior to the assay in which the final concentration was 0.5 nM.

human plasmin = human plasmin (Homo sapiens, UniProt P00747); experiment: Plasmin assay, chromogenic substrate S-2251; format: biochemical; settings: purified human enzyme 1.0 nM, 30 minute incubation, substrate 300 μM, HBSA pH 7.5
Description: The buffer used for all assays was HBSA (10 mM HEPES, pH 7.5, 150 mM sodium chloride, 0.1% bovine serum albumin). […] Following a 30 minute incubation at ambient temperature, 50 μL of the substrate at the concentrations specified below, was added to the wells yielding a final total volume of 200 μL. The initial velocity of chromogenic substrate hydrolysis was measured by the change in absorbance at 405 nm using a Thermo Max® Kinetic Microplate Reader over a 5 minute period in which less than 5% of the added substrate was utilized.
Plasmin catalytic activity was determined using the chromogenic substrate, S-2251 [D-valyl-L-leucyl-L-lysine-p-nitroanilide dihydrochloride], which was obtained from Kabi Diagnostica.

[1] = system: FeCl3-induced platelet-dependent arterial thrombosis; format: in vivo, rat; settings: for Clot Size: mean ± S.E.M.
Excerpt: Res., 60: 269-280 (1990). […] Res., 60: 269-280 (1990). […] The animals were then euthanized.

T1 sequence (P00742 235-488 limits assumed): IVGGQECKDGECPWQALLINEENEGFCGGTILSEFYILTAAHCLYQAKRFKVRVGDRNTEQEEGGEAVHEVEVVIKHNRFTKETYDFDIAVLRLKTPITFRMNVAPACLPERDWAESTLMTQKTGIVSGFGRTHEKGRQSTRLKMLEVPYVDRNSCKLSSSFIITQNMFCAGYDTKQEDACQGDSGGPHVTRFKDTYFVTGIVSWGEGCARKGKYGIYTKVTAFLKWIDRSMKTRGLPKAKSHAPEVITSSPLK
T1 sequence (P00742 41-179 partner limits assumed): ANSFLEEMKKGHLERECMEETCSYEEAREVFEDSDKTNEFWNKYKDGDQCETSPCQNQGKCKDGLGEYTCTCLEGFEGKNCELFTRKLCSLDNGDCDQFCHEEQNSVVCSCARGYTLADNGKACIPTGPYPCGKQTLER
Chain of human plasmin (P00747 581-810 limits assumed): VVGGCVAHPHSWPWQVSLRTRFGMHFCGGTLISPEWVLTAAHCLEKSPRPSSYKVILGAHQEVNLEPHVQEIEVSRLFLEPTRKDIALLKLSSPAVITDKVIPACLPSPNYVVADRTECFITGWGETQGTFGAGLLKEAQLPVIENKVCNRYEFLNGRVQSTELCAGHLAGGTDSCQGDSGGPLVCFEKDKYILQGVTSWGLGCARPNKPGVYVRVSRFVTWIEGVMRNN
Chain of human plasmin (P00747 97-580 partner limits assumed): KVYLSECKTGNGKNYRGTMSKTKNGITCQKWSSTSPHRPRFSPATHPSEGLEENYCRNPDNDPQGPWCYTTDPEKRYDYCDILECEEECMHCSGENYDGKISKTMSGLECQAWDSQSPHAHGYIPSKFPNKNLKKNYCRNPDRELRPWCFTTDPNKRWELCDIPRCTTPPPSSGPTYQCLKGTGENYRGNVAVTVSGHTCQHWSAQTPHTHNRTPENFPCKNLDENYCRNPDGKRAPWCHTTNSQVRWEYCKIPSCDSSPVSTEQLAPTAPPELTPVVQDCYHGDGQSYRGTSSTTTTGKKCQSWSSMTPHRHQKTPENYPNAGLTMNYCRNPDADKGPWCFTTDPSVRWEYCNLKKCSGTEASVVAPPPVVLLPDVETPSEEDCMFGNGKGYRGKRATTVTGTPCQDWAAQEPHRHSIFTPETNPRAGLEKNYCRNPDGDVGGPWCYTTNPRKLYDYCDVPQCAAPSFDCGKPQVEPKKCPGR

Row | Structure (SMILES) | pIC50 (human α-thrombin) | pIC50 (Human factor Xa) | pIC50 (human plasmin) | Clot Size ([1]; Group 1, 25 μg/kg/min i.v. infusion) [%] | Clot Size ([1]; Group 2, 50 μg/kg/min i.v. infusion) [%] | Clot Size ([1]; Group 3, 100 μg/kg/min i.v. infusion) [%] | Efficacy as an antithrombotic agent (in words) ([1]; rat FeCl3 model, i.v. infusion)
1 | N=C(N)NCCC[C@@H](C=O)NC(=O)[C@@H]1CCCN1C(=O)[C@H](CC(=O)O)NC(=O)CCC1CCCCC1 [ChxPA-Asp-Pro-Arg-al, N-(3-cyclohexanepropionyl)-L-aspartyl-L-prolyl-L-argininal] | 7.39 | 7.62 |  |  |  |  | 
2 | CCCC(CCC)C(=O)N[C@@H](CC(=O)O)C(=O)N1CCC[C@H]1C(=O)N[C@H](C=O)CCCNC(=N)N [2PrPent-Asp-Pro-Arg-al, N-(2-propylpentanoyl)-L-aspartyl-L-prolyl-L-argininal] | 8.21 | 6.62 |  |  |  |  | 
3 | CC(C)CCC(=O)NC(Cc1nnn[nH]1)C(=O)N1CCC[C@H]1C(=O)N[C@H](C=O)CCCNC(=N)N (stereo partly drawn) [4MeV-Ala(Tzl)-Pro-Arg-al, 3-tetrazolyl-2-(4-methylvaleroylamido) propionyl-L-prolyl-L-argininal] |  |  | 6.30 |  |  |  | 
4 | CC(C)CCC(=O)N[C@@H](CC(=O)O)C(=O)N1CCC[C@H]1C(=O)N[C@H](C=O)CCCNC(=N)N [4MeV-Asp-Pro-Arg-al, N-(4-methylpentanoyl)-L-aspartyl-L-prolyl-L-argininal] | 6.86 | 7.13 |  |  |  |  | 
5 | N=C(N)NCCC[C@@H](C=O)NC(=O)[C@@H]1CCCN1C(=O)[C@H](CC(=O)O)NC(=O)CCc1ccccc1 [HCA-Asp-Pro-Arg-al, N-(3-phenylpropionyl)-L-aspartyl-L-prolyl-L-argininal] (Hydrocinnamoyl-Asp-Pro-Arg-aldehyde) | 7.04 | 7.28 |  | 48.38 ± 24.71 | 22.38 ± 21.0 | 3.38 ± 5.44 | reduction in the incidence of occlusion and in clot size
